*1 amine or outer side, *2 acyl side, *3 side chain or, on linkers, in order; H or OH if unused. Where a SMILES comes first, the peptide text is derived from it. [ ]: non-standard residue; d: D form. X3 = O=C(CC[C@H](Cc1ccc(O)cc1)N[*:1])[*:2]; Oic = O=C(O)[C@@H]1C[C@@H]2CCCC[C@@H]2N1; Gly(octyl) = CCCCCCCC[C@H](N)C(=O)O; hTyr = N[C@@H](CCc1ccc(O)cc1)C(=O)O; AllylGly = C=CC[C@H](N)C(=O)O; β3hK = NCCCC[C@H](N)CC(=O)O; hSer = N[C@@H](CCO)C(=O)O; Dab = NCC[C@H](N)C(=O)O; Dap = NC[C@H](N)C(=O)O
Tests used:
Format in all cases: biochemical
[1] = molecular target: T1, human neutrophil elastase (Homo sapiens, UniProt P08246); experiment: Inhibition of human neutrophil elastase (hydrolysis of MeOSuc-AAPV-pNA); conditions: substrate MeOSuc-AAPV-pNA 0.3 mM, enzyme 10 nM, 37° C., pH 8; read-out: Human neutrophil elastase (hNE) IC50
T1 construct: purchased Serva Electrophoresis, Germany
T1 sequence (P08246 30-267): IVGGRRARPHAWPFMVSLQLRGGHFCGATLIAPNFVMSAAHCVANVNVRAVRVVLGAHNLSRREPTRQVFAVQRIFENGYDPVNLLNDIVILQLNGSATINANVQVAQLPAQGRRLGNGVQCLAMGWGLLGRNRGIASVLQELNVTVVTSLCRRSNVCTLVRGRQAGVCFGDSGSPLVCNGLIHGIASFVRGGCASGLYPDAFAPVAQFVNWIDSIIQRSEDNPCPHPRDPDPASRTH
Outline: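 MeOSuc-AAPV-pNA (0.3 mM) hydrolysis by 10 nM enzyme at 37° C with serially diluted peptides (1% DMSO) in 50 mM Tris pH 8, 300 mM NaCl, 0.01% Tween20. pNA release read at 405 nm over 30 minutes; IC50 from 4-parameter Hill fit.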

[2] = molecular target: T2, porcine pancreatic elastase (Sus scrofa, UniProt P00772); experiment: Inhibition of porcine pancreatic elastase (hydrolysis of MeOSuc-AAA-pNA); conditions: for hNE/PPE selectivity: ratio of PPE IC50 to hNE IC50; for IC50: substrate MeOSuc-AAA-pNA 1 mM, enzyme 15 nM, 37° C., pH8, read-out: Porcine pancreatic elastase (PPE) IC50
T2 construct: purchased Sigma, USA
Outline: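 Elastase (15 nM) incubated at 37 °C with 1 mM MeOSuc-AAA-pNA and serially diluted peptides (0.5% DMSO) in 50 mM Tris pH 8, 100 mM NaCl, 0.01% Tween20. pNA release read at 405 nm over 30 min; IC50 from 4-parameter Hill fit.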

human proteinase 3 = molecular target: T3, human proteinase 3 (Homo sapiens, UniProt P24158); experiment: Inhibition of human proteinase 3 (substrate Boc-Ala-Ala-Nva-SBzl); conditions: for hNE/hPr3 selectivity: ratio of hPr3 IC50 to hNE IC50; for IC50: substrate Boc-Ala-Ala-Nva-SBzl 1 mM, enzyme 10 nM, 37° C., pH7.4, read-out: Human proteinase 3 (hPr3) IC50
T3 construct: purchased Elastin Products Company, USA
T3 sequence (P24158 28-248): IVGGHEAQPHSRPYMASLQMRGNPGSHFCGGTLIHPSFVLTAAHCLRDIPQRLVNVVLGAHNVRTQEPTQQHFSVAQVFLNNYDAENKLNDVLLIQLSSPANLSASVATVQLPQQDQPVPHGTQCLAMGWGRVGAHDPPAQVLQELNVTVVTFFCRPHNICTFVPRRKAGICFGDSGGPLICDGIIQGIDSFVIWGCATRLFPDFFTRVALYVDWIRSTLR
Outline: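 Enzyme at 10 nM incubated at 37°C with 1 mM thiobenzyl ester substrate, 250 μM 4,4′-dithiodipyridine and serial peptide dilutions (0.5% DMSO) in Tris pH 7.4, 150 mM NaCl, 0.01% Tween20. Absorbance at 340 nm followed over 30 min; IC50 from 4-parameter Hill fit.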

T2 sequence (P00772 27-266): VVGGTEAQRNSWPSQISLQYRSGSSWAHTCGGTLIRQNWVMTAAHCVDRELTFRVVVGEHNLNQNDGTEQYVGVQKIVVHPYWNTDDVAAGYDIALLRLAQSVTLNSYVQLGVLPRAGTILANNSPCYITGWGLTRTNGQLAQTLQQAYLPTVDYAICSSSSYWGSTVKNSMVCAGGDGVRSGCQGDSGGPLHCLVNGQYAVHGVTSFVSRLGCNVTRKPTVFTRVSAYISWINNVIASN

IC50 [1] [nM] | hNE/PPE selectivity [2] | IC50 [2] [nM] | hNE/hPr3 selectivity (human proteinase 3) | IC50 (human proteinase 3) [nM] | Compound
41.5 | 212 | 8800 | 371 | 15400 | CCCCCCCC[C@@H]1NC(=O)[C@@H]2CCCN2C(=O)[C@H]2CCCN2C(=O)[C@H]([C@@H](C)O)NC(=O)C[C@H](CCCCN)NC(=O)[C@H](CCC(N)=O)NC(=O)[C@@H]2CCCN2C(=O)[C@@H]2CCCN2C(=O)[C@H]([C@@H](C)CC)NC(=O)[C@H](CO)NC(=O)[C@H](C)NC(=O)[C@H]([C@@H](C)O)NC(=O)[C@H](CCC(=O)O)NC1=O [Example 37, Cyclo(-OctGly-Glu-Thr-Ala-Ser-Ile-Pro-Pro-Gln-[H-β^3-H Lys-OH]-Thr-^DPro-Pro-)] (cyclo([Gly(octyl)]ETASIPPQ[β3hK]T[dP]P))
5.5 | 218 | 1200 | 644 | 3540 | CCCCCCCC[C@@H]1NC(=O)[C@@H]2CCCN2C(=O)[C@H]2CCCN2C(=O)[C@H](CN)NC(=O)[C@H](CCCCN)NC(=O)[C@H](CCC(N)=O)NC(=O)[C@@H]2CCCN2C(=O)[C@@H]2CCCN2C(=O)[C@H]([C@@H](C)CC)NC(=O)[C@H](CO)NC(=O)[C@H](C)NC(=O)[C@H]([C@@H](C)O)NC(=O)[C@H](CCC(=O)O)NC1=O [Example 2, Cyclo(-OctGly-Glu-Thr-Ala-Ser-Ile-Pro-Pro-Gln-Lys-Dap-^DPro-Pro-)] (cyclo([Gly(octyl)]ETASIPPQK[Dap][dP]P))
17.3 | 215 | 3720 | 711 | 12300 | CC[C@H](C)[C@@H]1NC(=O)[C@H](CO)NC(=O)[C@H](C)NC(=O)[C@H]([C@@H](C)O)NC(=O)[C@H](CCC(=O)O)NC(=O)[C@H](CCNC(=O)[C@@H](N)Cc2ccccc2)NC(=O)[C@@H]2CCCN2C(=O)[C@H]2CCCN2C(=O)[C@H](Cc2ccc(O)cc2)NC(=O)[C@H](CCCCN)NC(=O)[C@H](CCC(N)=O)NC(=O)[C@@H]2CCCN2C(=O)[C@@H]2CCCN2C1=O [Example 9, Cyclo(-Dab(Phe)-Glu-Thr-Ala-Ser-Ile-Pro-Pro-Gln-Lys-Tyr-^DPro-Pro-)] (cyclo([Dab](Phe)ETASIPPQKY[dP]P))
11.8 | 1085 | 12800 | 5305 | 62600 | CCCCCCCC[C@@H]1NC(=O)[C@H](CCC(=O)O)NC(=O)[C@@H](CCCCN)NC(=O)[C@H]([C@@H](C)O)NC(=O)[C@H](CCCCN)NC(=O)[C@H](CCC(N)=O)NC(=O)[C@@H]2CCCN2C(=O)[C@@H]2CCCN2C(=O)[C@H]([C@@H](C)CC)NC(=O)[C@H](CO)NC(=O)[C@H](C)NC(=O)[C@H]([C@@H](C)O)NC(=O)[C@H](CCC(=O)O)NC1=O [Example 29, Cyclo(-OctGly-Glu-Thr-Ala-Ser-Ile-Pro-Pro-Gln-Lys-Thr-^DLys-Glu-)] (cyclo([Gly(octyl)]ETASIPPQKT[dK]E))
4.8 | 129 | 620 | 150 | 720 | CCCCCCCC[C@@H]1NC(=O)[C@@H]2CCCN2C(=O)[C@H]2CCCN2C(=O)[C@H](CCOC)NC(=O)[C@H](CCCCN)NC(=O)[C@H](CCC(N)=O)NC(=O)[C@@H]2CCCN2C(=O)[C@@H]2CCCN2C(=O)[C@H]([C@@H](C)CC)NC(=O)[C@H](CO)NC(=O)[C@H](C)NC(=O)[C@H]([C@@H](C)O)NC(=O)[C@H](CCC(=O)O)NC1=O [Example 1, Cyclo(-OctGly-Glu-Thr-Ala-Ser-Ile-Pro-Pro-Gln-Lys-hSer(Me)-^DPro-Pro-)] (cyclo([Gly(octyl)]ETASIPPQK[hSer](Me)[dP]P))
33 | >3030 | > 100000 | >3030 | > 100000 | C=CC[C@@H]1NC(=O)[C@H]([C@@H](C)O)NC(=O)[C@H](CCC(=O)O)NC(=O)[C@H](CCC(=O)N[C@@H](Cc2ccccc2)C(=O)O)NC(=O)[C@@H]2CCCN2C(=O)[C@H]2CCCN2C(=O)[C@H]([C@@H](C)O)NC(=O)[C@H](CCCCN)NC(=O)[C@H](CCC(N)=O)NC(=O)[C@@H]2CCCN2C(=O)[C@@H]2CCCN2C(=O)[C@H]([C@@H](C)CC)NC(=O)[C@H](CO)NC1=O [Example 19, Cyclo(-Glu(Phe)-Glu-Thr-AllylGly-Ser-Ile-Pro-Pro-Gln-Lys-Thr-^DPro-Pro-)] (cyclo(E(Phe)ET[AllylGly]SIPPQKT[dP]P))
19.8 | 91 | 1810 | 168 | 3330 | CCCCCCCC[C@@H]1NC(=O)[C@@H]2CCCN2C(=O)[C@H]2CCCN2C(=O)CC[C@H](Cc2ccc(O)cc2)NC(=O)[C@H](CCCCN)NC(=O)[C@H](CCC(N)=O)NC(=O)[C@@H]2CCCN2C(=O)[C@@H]2CCCN2C(=O)[C@H]([C@@H](C)CC)NC(=O)[C@H](CO)NC(=O)[C@H](C)NC(=O)[C@H]([C@@H](C)O)NC(=O)[C@H](CCC(=O)O)NC1=O [Example 8, Cyclo(-OctGly-Glu-Thr-Ala-Ser-Ile-Pro-Pro-Gln-Lys-[H-γ^4-DiHTyr-OH]-^DPro-Pro-)] (cyclo([Gly(octyl)]ETASIPPQK[X3][dP]P))
15 | 367 | 5500 | 1733 | 26000 | CCCCCCCC[C@@H]1NC(=O)[C@@H]2CCCN2C(=O)[C@H]2CCCN2C(=O)[C@H](Cc2ccc(O)cc2)NC(=O)[C@H](CCCCN)NC(=O)[C@H](CCC(N)=O)NC(=O)[C@@H]2CCCN2C(=O)[C@@H]2CCCN2C(=O)[C@H]([C@@H](C)CC)NC(=O)[C@H](CO)NC(=O)[C@H](C)NC(=O)[C@H]([C@@H](C)O)NC(=O)[C@H](CNC(=O)[C@@H](N)Cc2ccccc2)NC1=O [Example 14, Cyclo(-OctGly-Dap(Phe)-Thr-Ala-Ser-Ile-Pro-Pro-Gln-Lys-Tyr-^DPro-Pro-)] (cyclo([Gly(octyl)][Dap](Phe)TASIPPQKY[dP]P))
4.8 | >20833 | > 100000 | >20833 | > 100000 | CC[C@H](C)[C@@H]1NC(=O)[C@H](CO)NC(=O)[C@H](C)NC(=O)[C@H]([C@@H](C)O)NC(=O)[C@H](CCc2ccc(O)cc2)NC(=O)[C@H](CCCNC(=N)N)NC(=O)[C@@H]2CCCN2C(=O)[C@H]2CCCN2C(=O)[C@H]([C@@H](C)O)NC(=O)[C@H](CCCCN)NC(=O)[C@H](CCC(N)=O)NC(=O)[C@@H]2C[C@@H]3CCCC[C@@H]3N2C(=O)[C@@H]2CCCN2C1=O [Example 42] (cyclo(R[hTyr]TASIP[Oic]QKT[dP]P))

Reference: patent US10273267B2, “Beta-hairpin peptidomimetics as selective elastase inhibitors” (POLYPHOR AG, priority 2013, dated 2019)
